Values of other authors as cited in patent publication US20100047341A1, “COMBINED PREPARATION FOR THE TREATMENT OF CARDIOVASCULAR DISEASES BASED ON CHRONOTHERAPY THEORY” (HANALL PHARMACEUTICAL CO., LTD., priority 2006, published 2010).

| SMILES | time to maximum level in blood (losartan itself as active form released from the liver to blood) | time to maximum plasma concentration (after the conversion of losartan in the liver) [h] |
| --- | --- | --- |
| CCCCc1nc(Cl)c(CO)n1Cc1ccc(-c2ccccc2-c2nn[nH]n2)cc1 [Losartan, 2-butyl-4chloro-1-[p-(o-1H-tetrazol-5-ylphenyl)benzyl]imidazole-5-methanol] | an hour |  |
| CCCCc1nc(Cl)c(C(=O)O)n1Cc1ccc(-c2ccccc2-c2nn[nH]n2)cc1 [losartan carboxylate] |  | 3 to 4 |
